Test system: Rabbit platelet rich plasma (PRP)
Test: Inhibitory activity on platelet aggregation in rabbit platelet rich plasma (light transmission)
Format: cell-based
Details: added to PRP 30 minutes before agent; for Inhibitory activity on platelet aggregation, PAF: compound 3x10^-6 (unit not given), Platelet activating factor (PAF) 10 mg/ml; for Inhibitory activity on platelet aggregation, ADP / Inhibitory activity on platelet aggregation, AA / Inhibitory activity on platelet aggregation, Collagen: compound 10^-4 (unit not given); for Inhibitory activity on platelet aggregation, ADP: Adenosine diphosphate (ADP) 5 mM; for Inhibitory activity on platelet aggregation, AA: Arachidonic acid (AA) 1 mM; for Inhibitory activity on platelet aggregation, Collagen: aggregating agent collagen
Description: 3. Experiment for inhibitory activity on platelet aggregation in rabbit:
Rabbit platelet rich plasma (PRP) was prepared by centrifugation of the citrated blood at 380 g for 10 minutes at 20°C. Test solution (10 µl) was added to PRP (200 µl) 30 minutes before treatment of aggregation agents (10 µl). The extent of aggregation was expressed with the maximum change in light transmission for PRP and platelet poor plasma was taken as a value of 100%

Row | SMILES | Inhibitory activity on platelet aggregation, PAF [%] | Inhibitory activity on platelet aggregation, ADP [%] | Inhibitory activity on platelet aggregation, AA [%] | Inhibitory activity on platelet aggregation, Collagen [%]
1 | COC(=O)C1=C(C)NC(C)=C(C(=O)OC/C=C(\C)c2ccc(Cn3ccnc3)cc2)C1c1cccc([N+](=O)[O-])c1 (stereo not drawn) [Example 6] | 0 | 6.5 | 15.6 | 27.2
2 | COC(=O)C1=C(C)NC(C)=C(C(=O)OC/C=C/c2ccc(Cn3ccnc3)cc2)C1c1cccc(C(F)(F)F)c1 (stereo not drawn) [Example 17, (E)-3-{4-(1-imidazolylmethyl)phenyl}-2-propen-1-yl methyl 1,4-dihydro-2,6-dimethyl-4-(3-trifluoromethylphenyl)pyridine-3,5-dicarboxylate] | 39.7 | 10.5 | 37.8 | 55.0
3 | COC(=O)C1=C(C)NC(C)=C(C(=O)OC/C=C/c2ccc(Cn3ccnc3)cc2)C1c1cccnc1 (stereo not drawn) [Example 22, (E)-3-{4-(1-imidazolylmethyl)phenyl}-2-propen-1-yl methyl 1,4-dihydro-2,6-dimethyl-4-(3-pyridyl)pyridine-3,5-dicarboxylate] | 0 | 14.7 | 23.2 | 24.7
4 | COC(=O)C1=C(C)NC(C)=C(C(=O)OC/C=C/c2ccc(Cn3cncn3)cc2)C1c1cccc([N+](=O)[O-])c1 (stereo not drawn) [Example 10, Methyl (E)-3-{4-(1,2,4-triazol-1-ylmethyl)phenyl}-2propen-1-yl 1,4-dihydro-2,6-dimethyl-4-(3-nitrophenyl)pyridine-3,5-dicarboxylate] | 24.4 | 2.1 | 5.0 | 5.5
5 | COC(=O)C1=C(C)NC(C)=C(C(=O)OC/C=C/c2ccc(Cn3ccnc3)s2)C1c1cccc([N+](=O)[O-])c1 (stereo not drawn) [Example 5, (E)-3-{5-(1-imidazolylmethyl)-2-thiophene}-2-propen-1-yl methyl 1,4-dihydro-2,6-dimethyl-4-(3-nitrophenyl) pyridine-3,5-dicarboxylate] | 100 | 12.0 | 33.4 | 32.3
6 | COC(=O)C1=C(C)NC(C)=C(C(=O)OC/C=C/c2ccc(Cn3cnnn3)cc2)C1c1cccc([N+](=O)[O-])c1 (stereo not drawn) [Example 11, Methyl (E)-3-{4-(1,2,3,4-tetrazol-1-ylmethyl)phenyl}-2-propen-1-yl 1,4-dihydro-2,6-dimethyl-4-(3-nitrophenyl)pyridine-3,5-dicarboxylate] | 31.1 | 1.3 | 2.9 | 7.1
7 | COC(=O)C1=C(C)NC(C)=C(C(=O)OC/C=C/c2ccc(Cn3ccnc3)o2)C1c1cccc([N+](=O)[O-])c1 (stereo not drawn) [Example 4, (E)-3-{5-(1-imidazolylmethyl)-2-furan}-2-propen-1-yl methyl 1,4-dihydro-2,6-dimethyl-4-(3-nitrophenyl)pyridine-3,5-dicarboxylate] | 95.6 | – | 30.8 | 30.5
8 | COC(=O)C1=C(C)NC(C)=C(C(=O)OC/C=C/c2ccc(-n3ccnc3)cc2)C1c1cccc([N+](=O)[O-])c1 (stereo not drawn) [Example 3, (E)-3-{4-(1-imidazolyl)phenyl}-2-propen-1-yl methyl 1,4-dihydro-2,6-dimethyl-4-(3-nitrophenyl)pylidine-3,5-dicarboxylate] | 0 | 2.2 | 19.3 | 33.2
9 | CCOC(=O)C1=C(C)NC(C)=C(C(=O)OC/C=C/c2ccc(Cn3ccnc3)cc2)C1c1cccc([N+](=O)[O-])c1 (stereo not drawn) [Example 7, Ethyl (E)-3-{4-(1-imidazolylmethyl)phenyl}-2-propen-1-yl 1,4-dihydro-2,6-dimethyl-4-(3-nitrophenyl)pyridine-3,5-dicarboxylate] | 0 | 4.3 | 17.8 | 30.9
10 | CC1=C(C(=O)OC/C=C/c2ccccc2)C(c2cccc([N+](=O)[O-])c2)C(C(=O)OC/C=C/c2ccc(Cn3ccnc3)cc2)=C(C)N1 (stereo not drawn) [Example 14, (E)-cinnamyl (E)-3-{4-(1-imidazolylmethyl)phenyl}-2-propen-1-yl 1,4-dihydro-2,6-dimethyl-4-(3-nitrophenyl)pyridine-3,5-dicarboxylate] | 44.7 | 4.3 | 42.0 | 69.6
11 | COCCOC(=O)C1=C(C)NC(C)=C(C(=O)OC/C=C/c2ccc(Cn3ccnc3)cc2)C1c1cccc([N+](=O)[O-])c1 (stereo not drawn) [Example 16, (E)-3-{4-(1-imidazolylmethyl)phenyl}-2-propen-1-yl 2-methoxyethyl 1,4-dihydro-2,6-dimethyl-4-(3-nitrophenyl)pyridine-3,5-dicarboxylate] | 42.4 | 7.1 | 33.7 | 24.7
12 | COC(=O)C1=C(C)NC(C)=C(C(=O)OC/C=C/c2ccc(Cn3ccnc3)cc2)C1c1ccnc2ccccc12 (stereo not drawn) [Example 23, (E)-3-{4-(1-imidazolylmethyl)phenyl}-2-propen-1-yl methyl 1,4-dihydro-2,6-dimethyl-4-(4-quinolyl)pyridine-3,5-dicarboxylate] | 0 | 2.6 | 25.7 | 29.5
13 | COC(=O)C1=C(C)NC(C)=C(C(=O)OC/C=C/c2ccc(Cc3cccnc3)cc2)C1c1cccc([N+](=O)[O-])c1 (stereo not drawn) [Example 2, Methyl (E)-3-{4-(3-pyridylmethyl)phenyl}-2-propen-1-yl 1,4-dihydro-2,6-dimethyl-4-(3-nitrophenyl)pyridine-3,5-dicarboxylate] | 0 | 5.5 | 12.6 | 23.5
14 | COC(=O)C1=C(C)NC(C)=C(C(=O)OC/C=C/c2ccccc2Cn2ccnc2)C1c1cccc([N+](=O)[O-])c1 (stereo not drawn) [Example 20, (E)-3-{2-(1-imidazolylmethyl)phenyl}-2-propen-1-yl methyl 1,4-dihydro-2,6-dimethyl-4-(3-nitrophenyl)pyridine-3,5-dicarboxylate] | 0 | 9.5 | 30.4 | 32.3
15 | COC(=O)C1=C(C)NC(C)=C(C(=O)OC/C=C/c2cccc(Cn3ccnc3)n2)C1c1cccc([N+](=O)[O-])c1 (stereo not drawn) [Example 25, (E)-3-{6-(1-imidazolylmethyl)pyridine-2-yl}-2-propen-1-yl methyl 1,4-dihydro-2,6-dimethyl-4-(3-nitrophenyl)pyridine-3,5-dicarboxylate] | 28.5 | 0 | 27.8 | 22.5
16 | COC(=O)C1=C(C)NC(C)=C(C(=O)OC/C=C/c2cccc(Cn3ccnc3)c2)C1c1cccc([N+](=O)[O-])c1 (stereo not drawn) [Example 21, (E)-3-{3-(1-imidazolylmethyl)phenyl}-2-propen-1-yl methyl 1,4-dihydro-2,6-dimethyl-4-(3-nitrophenyl)pyridine-3,5-dicarboxylate] | 25.4 | 17.3 | 37.6 | 29.5
17 | COC(=O)C1=C(C)NC(C)=C(C(=O)OC/C(C)=C/c2ccc(Cn3ccnc3)cc2)C1c1cccc([N+](=O)[O-])c1 (stereo not drawn) [Example 8, (E)-3-{4-(1-imidazolylmethyl)phenyl}-2-methyl-2-propen-1-yl methyl 1,4-dihydro-2,6-dimethyl-4-(3-nitro-phenyl)pyridine-3,5-dicarboxylate] | 28.9 | 10.8 | 18.8 | 18.9
18 | COC(=O)C1=C(C)NC(C)=C(C(=O)OC/C=C/c2ccc(Cn3ccnc3)cc2)C1c1cccc([N+](=O)[O-])c1 (stereo not drawn) [Example 1, (E)-3-{4-(1-imidazolylmethyl)phenyl}-2-propen-1-yl methyl 1,4-dihydro-2,6-dimethyl-4-(3-nitrophenyl)pyridine-3,5-dicarboxylate] | 35.4 | 7.3 | 26.2 | 19.5
19 | COC(=O)C1=C(C)NC(C)=C(C(=O)OC/C=C/c2ccc(Cn3cnnc3)cc2)C1c1cccc([N+](=O)[O-])c1 (stereo not drawn) [Example 9] | 78.8 | 6.5 | 5.9 | 11.1

From patent publication EP0320984A2, “1,4-Dihydropyridine derivatives” (FUJIREBIO INC., priority 1987, dated 1989)
